{"source": "patent US6127357A", "about": "“N-((phenyl, benzodioxinyl or N-heteroarylpiperazinyl)alkyl)-N-(N-heteroaryl)substituted carboxamides” (John Wyeth & Brother, Ltd., priority 1991, dated 2000)", "key": {"5-HT1A receptor [1]": {"target": "T1, 5-HT1A receptor (Rattus norvegicus, UniProt P19327)", "T1 construct": "rat hippocampal membrane homogenate; from tissue; host or cells: rat hippocampus membrane homogenate", "T1 sequence (P19327 1-422)": "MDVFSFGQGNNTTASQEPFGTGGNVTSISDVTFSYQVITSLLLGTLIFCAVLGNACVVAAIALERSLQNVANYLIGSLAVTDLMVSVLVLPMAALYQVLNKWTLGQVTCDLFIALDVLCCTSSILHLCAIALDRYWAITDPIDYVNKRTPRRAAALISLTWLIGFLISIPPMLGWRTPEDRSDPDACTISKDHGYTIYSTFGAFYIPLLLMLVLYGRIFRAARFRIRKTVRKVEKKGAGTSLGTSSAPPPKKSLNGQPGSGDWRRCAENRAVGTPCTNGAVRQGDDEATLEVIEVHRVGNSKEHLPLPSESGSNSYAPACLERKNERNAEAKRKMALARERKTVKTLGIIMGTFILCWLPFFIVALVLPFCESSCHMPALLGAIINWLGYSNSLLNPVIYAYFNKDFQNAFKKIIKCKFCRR", "assay": "5-HT1A receptor binding activity in rat hippocampal membrane homogenate", "description": "The compounds of the invention were tested for 5-HT1A receptor binding activity in rat hippocampal membrane homogenate by the method of B S Alexander and M D Wood, J Pharm Pharmacol, 1988, 40, 888-891."}, "5-HT1A receptor [2]": {"target": "T2, 5-HT1A receptor (Cavia porcellus, UniProt A0A286Y074)", "T2 construct": "guinea-pig ileum in vitro; from tissue; host or cells: guinea-pig ileum", "T2 sequence (A0A286Y074 1-421)": "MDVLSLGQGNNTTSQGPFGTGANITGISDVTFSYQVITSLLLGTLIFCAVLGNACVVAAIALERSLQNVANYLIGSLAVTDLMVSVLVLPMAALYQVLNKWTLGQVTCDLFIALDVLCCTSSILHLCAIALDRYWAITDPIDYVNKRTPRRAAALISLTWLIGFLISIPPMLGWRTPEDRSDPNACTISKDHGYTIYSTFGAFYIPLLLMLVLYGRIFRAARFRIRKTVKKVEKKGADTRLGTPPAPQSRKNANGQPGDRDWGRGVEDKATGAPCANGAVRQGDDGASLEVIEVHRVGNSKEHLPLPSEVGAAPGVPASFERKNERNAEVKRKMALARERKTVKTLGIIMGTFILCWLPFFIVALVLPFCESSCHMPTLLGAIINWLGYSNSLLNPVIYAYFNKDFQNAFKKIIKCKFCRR", "assay": "5-HT1A receptor antagonism: antagonism of 5-carboxamidotryptamine in the guinea-pig ileum in vitro", "description": "The compounds are tested for 5-HT1A receptor antagonism activity in a test involving the antagonism of 5-carboxamidotryptamine in the guinea-pig ileum in vitro (based upon the procedure of Fozard et al, Br J Pharmac, 1985, 86, 601P)."}}, "data": [{"smiles": "O=C(C1CCCCC1)N(CCN1CCN(c2cccc3c2OCCO3)CC1)c1ccccn1", "note": "[Example 17, N-(2-(1-(4-(2,3-Dihydro-1,4-benzodioxin-5-yl)piperazinyl))ethyl)-N-(2-pyridinyl)cyclohexanecarboxamide]", "values": [{"measurement": "IC50", "setting": "5-HT1A receptor [1]", "value": 3, "unit": "nM"}, {"measurement": "pA2, 5-HT1A receptor antagonism", "setting": "5-HT1A receptor [2]", "value": 9.8}]}, {"smiles": "COc1ccccc1N1CCN(CCN(C(=O)NC2CCCCC2)c2ccccn2)CC1", "note": "[Example 4, N-Cyclohexyl-N-(2-(1-(4-(2-methoxyphenyl)piperazinyl))ethyl)-N-(2-pyridinyl)urea]", "values": [{"measurement": "IC50", "setting": "5-HT1A receptor [1]", "value": 5.8, "unit": "nM"}, {"measurement": "Kb", "setting": "5-HT1A receptor [2]; read-out: pA2, 5-HT1A receptor antagonism (converted)", "value": 15.8, "unit": "nM"}]}]}
